Laboratory results from ChEMBL document CHEMBL4321817, “A Chemical Probe for Tudor Domain Protein Spindlin1 to Investigate Chromatin Function” (J Med Chem, 2019).

Legend:
[1] = Stability in human liver microsomes assessed as half life; assay type: ADME, Microsome
[2] = Stability in human liver microsomes assessed as intrinsic clearance; assay type: ADME, Microsome; settings: read-out: CLH
[3] = Apparent permeability from basolateral side to apical side in human Caco2 cells; assay type: ADME, cell-based; settings: Caco-2
[4] = Apparent permeability from apical side to basolateral side in human Caco2 cells; assay type: ADME, cell-based; settings: Caco-2
[5] = Solubility of compound at >100 uM; assay type: physicochemical
U2OS = test: Cytotoxicity against human U2OS cells assessed as reduction in cell viability at >3 uM incubated for 2 days by propidium iodide staining based assay; settings: 48 h
[6] = Stability in mouse liver microsomes assessed as half life; assay type: ADME, Microsome
[7] = Stability in moue liver microsomes assessed as intrinsic clearance; assay type: ADME, Microsome; settings: mouse, read-out: CLH
Spindlin-1 = Spindlin-1 (Homo sapiens, UniProt Q9Y657); test: Displacement of trimethylated biotinylated histone H3 peptide from recombinant human His-tagged SPIN1 (26 to 262 residues) expressed in Escherichia coli BL21 (DE3) incubated for 30 mins followed by peptide addition and measured after 1 hr by Alphascreen method
Sequence of Spindlin-1 (Q9Y657 whole entry, the tested form may be a part): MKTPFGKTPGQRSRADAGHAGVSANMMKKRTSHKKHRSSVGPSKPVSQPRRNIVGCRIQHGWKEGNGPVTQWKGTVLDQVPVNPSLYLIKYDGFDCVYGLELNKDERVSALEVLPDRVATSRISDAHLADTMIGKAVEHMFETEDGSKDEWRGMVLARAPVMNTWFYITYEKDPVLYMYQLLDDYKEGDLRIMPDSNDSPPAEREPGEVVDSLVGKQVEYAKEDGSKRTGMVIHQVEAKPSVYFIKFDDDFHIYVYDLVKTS

[8] = target: T1, Histone-lysine N-methyltransferase EHMT2 (Homo sapiens, UniProt Q96KQ7); test: Inhibition of G9a (unknown origin) by scintillation proximity Assay
T1 sequence (Q96KQ7 whole entry): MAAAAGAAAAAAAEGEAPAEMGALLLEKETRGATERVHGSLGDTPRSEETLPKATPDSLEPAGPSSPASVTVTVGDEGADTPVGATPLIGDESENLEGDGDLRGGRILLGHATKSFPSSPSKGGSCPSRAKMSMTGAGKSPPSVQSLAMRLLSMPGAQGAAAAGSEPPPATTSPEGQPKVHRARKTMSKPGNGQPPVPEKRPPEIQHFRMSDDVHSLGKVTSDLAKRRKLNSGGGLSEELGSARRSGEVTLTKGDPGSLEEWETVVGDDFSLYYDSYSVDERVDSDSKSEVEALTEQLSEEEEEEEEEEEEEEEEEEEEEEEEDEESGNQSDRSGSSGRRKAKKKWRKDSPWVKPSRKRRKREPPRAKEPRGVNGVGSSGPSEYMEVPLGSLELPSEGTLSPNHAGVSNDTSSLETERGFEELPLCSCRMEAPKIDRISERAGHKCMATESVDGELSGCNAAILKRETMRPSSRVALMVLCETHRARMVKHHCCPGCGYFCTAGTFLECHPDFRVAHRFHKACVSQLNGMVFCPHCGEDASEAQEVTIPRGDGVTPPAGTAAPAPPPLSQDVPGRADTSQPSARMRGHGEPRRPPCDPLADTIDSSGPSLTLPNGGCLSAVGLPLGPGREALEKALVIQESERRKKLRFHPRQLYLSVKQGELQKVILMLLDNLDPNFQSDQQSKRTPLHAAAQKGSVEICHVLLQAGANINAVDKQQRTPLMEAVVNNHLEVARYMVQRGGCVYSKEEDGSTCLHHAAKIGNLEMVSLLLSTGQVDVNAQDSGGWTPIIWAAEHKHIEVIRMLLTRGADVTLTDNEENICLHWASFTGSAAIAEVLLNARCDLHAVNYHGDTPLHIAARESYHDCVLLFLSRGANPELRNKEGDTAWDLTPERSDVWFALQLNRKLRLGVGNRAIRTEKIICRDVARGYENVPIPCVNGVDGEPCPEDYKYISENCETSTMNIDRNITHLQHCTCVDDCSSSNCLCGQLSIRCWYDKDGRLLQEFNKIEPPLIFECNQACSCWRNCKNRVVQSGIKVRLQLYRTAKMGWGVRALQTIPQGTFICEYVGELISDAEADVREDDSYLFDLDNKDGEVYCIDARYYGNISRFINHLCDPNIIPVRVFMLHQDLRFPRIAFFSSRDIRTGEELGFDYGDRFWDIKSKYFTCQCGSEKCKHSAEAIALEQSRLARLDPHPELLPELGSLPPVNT

Row | Structure (SMILES) | IC50 (Spindlin-1) [µM] | IC50 ([8]; read-out: IC50) [nM] | Activity (U2OS) | also measured
1 | CC1(C)C(N)=Nc2cc(OCCCN3Cc4ccc(OCCc5cn(CC(=O)N6CCC(CCN7CCCC7)CC6)nn5)cc4C3)c(OCC3CC3)cc21 |  |  | Non-Toxic | half-life [1]: 68.4 min; microsomal CLint [2]: 20.3 µL/min/mg; Papp B→A [3]: 6.07 ×10⁻⁶ cm/s; Papp A→B [4]: 6.59 ×10⁻⁶ cm/s; solubility [5]: Soluble; half-life [6]: 37.1 min; microsomal CLint [7]: 37.4 µL/min/mg
2 | CC1(C)C(N)=Nc2cc(OCCCCN3Cc4ccc(OCc5cn(CC(=O)N6CCC(CCN7CCCC7)CC6)nn5)cc4C3)c(OCC3CC3)cc21 |  |  | Non-Toxic | 
3 | COc1cc2c(cc1OCCCN1CCCC1)N=C(N)C21CCCC1 |  | 6 |  | 
4 | CCOc1cc2c(cc1OCCCN1CCCC1)N=C(N)C21CCCC1 |  | 120 |  | 
5 | COc1cc2c(cc1OCCCN1Cc3cccc(OC)c3C1)N=C(N)C21CCCC1 | 6.65 |  |  | 
6 | NC1=Nc2cc(OCCCN3CCCC3)c(OCC3CC3)cc2C12CCCC2 | 1.12 | 3100 |  | 
7 | NC1=Nc2cc(OCCCN3Cc4ccccc4C3)c(OCC3CC3)cc2C12CCCC2 |  |  | Toxic | IC50 [8]: Not Active
8 | NC1=Nc2cc(OCCCCN3Cc4ccccc4C3)c(OCC3CC3)cc2C12CCCC2 | 6.22 |  | Toxic | IC50 [8]: Not Active
9 | COc1ccc2c(c1)CN(CCCOc1cc3c(cc1OC)C1(CCCC1)C(N)=N3)C2 | 0.6 |  |  | 
10 | CC1(C)C(N)=Nc2cc(OCCCN3Cc4ccccc4C3)c(OCC3CC3)cc21 |  |  | Toxic | IC50 [8]: Not Active
11 | CC(C)Oc1cc2c(cc1OCCCN1CCCC1)N=C(N)C21CCCC1 | 8.91 | 900 |  | 
12 | COc1cc2c(cc1OCCCN1Cc3ccccc3C1)N=C(N)C21CCCC1 | 0.66 | 10000 |  | 

Now from value to compound, other results behind:

Row | IC50 (Spindlin-1) [µM] | IC50 ([8]; read-out: IC50) [nM] | Structure (SMILES) | Activity (U2OS) | also measured
13 | 6.92 |  | CC1(C)C(N)=Nc2cc(OCCCCN3Cc4ccccc4C3)c(OCC3CC3)cc21 | Toxic | IC50 [8]: Not Active
14 | 0.34 |  | COc1ccc2c(c1)CN(CCCOc1cc3c(cc1OCC1CC1)C1(CCCC1)C(N)=N3)C2 |  | 
